Measured values from patent publication US20130231312A1, “TREATMENT OF TYPE II DIABETES AND DIABETES-ASSOCIATED DISEASES WITH SAFE CHEMICAL MITOCHONDRIAL UNCOUPLERS” (priority 2010, published 2013).

How the values were obtained:
[1] = among the first 100,000 persons treated; cited from earlier work
mitochondria = details: cited from earlier work
db/db mice [2] = test: Acute I.P. CSAA treatment, blood glucose in diabetic db/db mice; format: in vivo; details: 100 microgram/mouse I.P.
Text: (§1) The 5-week old db/db mice and the C57/B16 mice were purchased from Jackson Laboratory and housed in the vivarium of UMDNJ-RWJMS. […] For food intake experiments, sets of mice were housed individually in metabolic cages (Nalgene) with free access to food and water. Food cups and food scattered in the runway to the cups were weighed daily to determine food intake. For mouse tissue studies, mice were sacrificed by decapitation, and the tissues of interesting were obtained.
(§2) Blood glucose was determined using OneTouch UltraSmart blood glucose monitoring system (Lifescan), and the insulin levels were measured by ultra sensitive mouse insulin ELISA kit (Crystal Chem Inc.), following the manufacturer's instructions.

[3] = system: high-fat diet induced pre-diabetic C57/B16 mice; test: Acute I.P. treatment, blood glucose in high-fat diet induced pre-diabetic mice; format: in vivo; details: 100 microgram/mouse I.P., starved 5 hours
Text: as §1, §2

AMPK [4] = test: Immunoblotting of phosphorylated AMPK in liver after acute I.P. CSAA; format: in vivo; details: mouse liver, acute 100 microgram/mouse I.P., 0, 2, 4 hours
Experimental: (§3) Immunoblotting assays were carried out according to standard protocol. The sources of the antibodies are: AMPK antibody (Cell Signaling Technology), Thr-172-phosphorylated AMPK antibody (Cell Signaling Technology), Ran antibody (C-20, Santa Cruz).

C57/B16 mice = test: Glucose uptake assay with 3H 2-deoxyglucose in tissues; format: in vivo; details: acute 100 microgram/mouse I.P., 3H-2-deoxyglucose 1.5 hours later
Experimental: 1.5 hours later, ^3H-2-deoxyglucose (0.5 microcurrie/gram of body weight) was injected through I.P. route. 30 minutes later, mice were treated with anesthetics and perfused with PBS. Mice were then sacrificed and tissue was extracted for measurement of ^3H-2-deoxyglucose accumulation (normalized against tissue mass).

db/db mice [5] = test: Chronic oral CSAA treatment of db/db diabetic mice; format: in vivo, mouse
Text: as §1, §2

[6] = system: C57/B16 mice fed with high-fat diet; test: Chronic oral CSAA treatment of high-fat diet induced pre-diabetic mice; format: in vivo, mouse
Text: as §1, §2

[7] = system: C57/B16 mice fed with high-fat diet; test: Glucose tolerance assay after chronic oral CSAA; format: in vivo, mouse; details: high-fat diet containing 1500 ppm CSAA for 9 weeks
Experimental: (§4) For glucose tolerance tests, mice were starved overnight and injected I.P. with 20% glucose at a dose of 2 g/kg body weight. Blood was obtained from the tail at time points 0, 15, 30, 60, 90, and 120 min for glucose measurement. For insulin tolerance tests, mice were starved for 5 h and injected I.P. with 0.75 U/kg body weight recombinant human insulin (Eli Lilly). Blood was obtained from the tail at time points 0, 15, 30, 60, 90, and 120 min for glucose measurement.

[8] = system: C57/B16 mice fed with high-fat diet; test: Insulin tolerance assay after chronic oral CSAA; format: in vivo, mouse; details: high-fat diet containing 1500 ppm CSAA for 9 weeks
Experimental: as §4

AMPK [9] = test: Immunoblotting of phosphorylated AMPK in liver after chronic oral CSAA; format: in vivo, mouse; details: mice under high-fat diet
Experimental: as §3

[10] = Chronic I.P. CSAA injection, high-fat diet induced body weight gain and food uptake; format: in vivo; details: daily I.P. 100 μg/mouse
Text: as §1
The other 12 mice were injected daily with vehicle only (PBS). The body weight was measured twice a week and the net body weight gain for each mouse was determined. The average weight gain in each group over the experimental period was plotted. […] The food uptake levels were measured daily with metabolic cages from the day 15 to day 29 and the average daily food uptake of each group was calculated.

[11] = system: mitochondria isolated from mouse liver; test: Mitochondrial uncoupling assay with isolated mitochondria (oxygen consumption, Oxygraph); format: biochemical; details: oligomycin 5 μg/ml
Experimental: For mitochondrial uncoupling assay with isolated mitochondria: Mitochondria were isolated from mouse liver. 1.0 mg of mitochondria in a volume of 0.9 ml of respiration buffer was analyzed for oxygen consumption in the presence of mitochondrial substrate as well as the various inhibitors with an Oxygraph System (Hansatech Instrument, Norfolk, UK). The final concentrations of the various chemicals added into the respiration buffer are as follows: succinate, 5 mM; ADP, 125 μM; oligomycin, 5 μg/ml; KCN, 2 mM)

NIH-3T3 cells [12] = test: Mitochondrial membrane potential (TMRE staining) in cultured cells; format: cell-based, mouse
Experimental: For mitochondrial uncoupling activity analysis with the cultured cells, the NIH-3T3 were culture to 90% confluence. […] The cells were then treated with TMRE (Tetramethylrhodamine ethyl ester perchlorate) to a final concentration of 100 nM, incubate for 15 minutes. The cells were then washed twice with PBS, and the pictures were taken under microscope.

NIH-3T3 cells [13] = test: Cellular oxygen consumption (BD Oxygen Biosensor System); format: cell-based, mouse
Experimental: (§5) BD™ Oxygen Biosensor System was used to measure the cellular oxygen consumption. NIH-3T3 cells were cultured overnight to log phase, then seeded in oxygen biosensor 96-well plate at the density of 20000 cells per well in DMEM medium. […] Oxygen consumptions (decrease in oxygen concentrations) were indicated by generation of fluorescent signals which were initially quenched by oxygen. Cellular ATP concentrations were measured with the ENLITEN® ATP Assay System and normalized against cell number.

NIH-3T3 cells [14] = test: Cellular ATP concentrations (ENLITEN ATP Assay System); format: cell-based, mouse; details: CSAA 1 μM
Experimental: as §5

hepatocytes = details: high-fat diet containing 1500 ppm CSAA for 10 weeks
Text: For mouse liver histological study, the mice sacrificed by decapitation. Liver slices were fixed with buffered formalin (Surgipath Medical Industries, Inc.) and embedded in paraffin. Tissue slides were stained with hematoxylin and eosin (H&E) for detection of lipid droplets in tissue samples. Pictures were taken with a Universal Microscope Axioplan 2 imaging system (Carl Zeiss) with phase contrast objectives.

[15] = stated for both mouse strains (FIG. 1)
[16] = high-fat diet containing 1500 ppm CSAA for 8 weeks
[17] = NIH-3T3 cells, 2 hours treatment, TMRE

O=[N+]([O-])c1ccc(O)c([N+](=O)[O-])c1 [DNP, 2,4-dinitrophenol]
fatalities due to hyperthermia [1]: two fatalities | concentrations at which the mitochondrial uncoupler functions (mitochondria): mini molar concentrations

NCCO.O=C(Nc1ccc([N+](=O)[O-])cc1Cl)c1cc(Cl)ccc1O [CSAA, 5-chloro-salicyl-(2-chloro-4-nitro) anilide 2-aminoethanol salt]
time after treatment at which blood glucose concentrations were lowered (db/db mice [2]; [15]): ~1 h | time until which blood glucose lowering remained effective (db/db mice [2]; [15]): about 4 hours | reduction in blood glucose as compared to the control (db/db mice [2]; db/db mice, starved 5 hours): 30% | effect on blood glucose concentration (hypoglycemic activity) [3]: dramatic decrease in blood glucose concentration | levels of the phosphorylated AMPK (AMPK [4]): dramatically increased | glucose uptake rates in liver, muscles, kidney, and lungs (C57/B16 mice): significantly increased | food intake rates versus mice fed normal food (db/db mice [5]; 1500 ppm in food): not significantly different | body weight and adiposity versus control mice (db/db mice [5]; oral CSAA (data not shown)): not different from the control mice | fasting blood glucose levels versus non-CSAA treated mice at later time (db/db mice [5]; oral treatment beyond two weeks (data not shown)): remained significantly lower | fasting blood glucose (db/db mice [5]; two week oral treatment, 1500 ppm in AIN-93M food): reduced the fasting blood glucose of the db/db mice to almost normal levels | fasting blood glucose [6, 16]: completely prevented the increase of fasting blood glucose | fasting insulin concentrations versus control group [6, 16]: significantly lower | food uptake ([6]; high-fat diet containing 1500 ppm CSAA, weeks 7 to 8): no effect | body weight and adiposity versus control mice ([6]; high-fat diet with oral CSAA (data not shown)): not different from the control mice | insulin sensitivity by glucose tolerance assay [7]: significantly increased insulin sensitivity | insulin sensitivity by insulin tolerance assay [8]: significantly increased insulin sensitivity | AMPK activity in liver (AMPK [9]): chronically elevated | food uptake rate versus vehicle group ([10]; day 15 to day 29): higher food uptake rate | weight gain induced by high-fat diet ([10]; mice aged 8 months on high-fat diet): reduces the weight gain | mitochondrial oxygen consumption in the presence of oligomycin [11]: still effectively promoted mitochondrial oxygen consumption | earliest time at which dissipation of mitochondrial membrane potential is seen (NIH-3T3 cells [12]; NIH-3T3 cells, 2 μM CSAA): 5 min | concentration at which reduction of mitochondrial membrane potential starts (NIH-3T3 cells [12]; [17]): 500 nM | concentration for full uncoupling of mitochondria (NIH-3T3 cells [12]; [17]): around 5 micromolar | concentration range at which mitochondria are uncoupled in cultured cells (NIH-3T3 cells [12]; cultured cells): high nanomolar to low micromolar range | cellular oxygen consumption (NIH-3T3 cells [13]; CSAA 1 μM): dramatically stimulated | effect of oligomycin co-treatment on CSAA-stimulated oxygen consumption (NIH-3T3 cells [13]; CSAA 1 μM and oligomycin 5 μg/ml): did not significantly affect | steady-state ATP concentrations in cells (NIH-3T3 cells [14]): does not affect | lipid load in hepatocytes (hepatocytes): dramatically reduced
